Laboratory results as given in patent publication US20050222418A1, “Novel tyloindicines and related processes, pharmaceutical compositions and methods” (priority 2002, published 2005).

What was measured:
[1] = system: KB cells and its drug resistant cells; experiment: Cross resistance studies in drug resistant cell lines; assay type: cell-based, human; details: cells resistant to VP-16, VCR, CPT or DOX
Excerpt: (§1) FIG. 1 illustrates the following referred to in the Examples herein: • “A. Chemical structure” provides the structural formulae for (+)-(S)-tylophorine (also referred to herein as compound “III-2” and DCB-3500); DCB-3501; “compound II-3a of FIG. 15”; and, in FIGS. 18-22, as […]); DCB-3502 (also referred to herein as “compound II-2); and DCB-3503 (also referred to herein as “NSC 716802”; “compound II-3b” of FIG. 15; and “ZH-152”). • “Table 1, B and C” provides EC50 and LD50 values for use of DCB-3500, DCB-3501, DCB-3502, and DCB-3503 against KB and HepG2 cancer cell lines resistant to various anticancer drugs, including VP-16 (etoposide), VCR (vincristine), CPT (camptothecin), and DOX (doxorubicin). • “Table 2 A, and B, and Table 3” illustrate that KB and HepG2 cancer cell lines are inhibited by the compounds of the instant invention. […] At the end of treatment, cells were washed, resuspended in PBS and stained with propidium iodide containing Rnase A for flow cytometric analysis. Data were analyzed using Modfit software.
FIG. 18 describes cross resistance studies in KB cell lines using DCB-3503.
(§2) Cells (1×10^4/well) were plated in 24-well plates. After 24 h, cells were treated with drugs for three generation times, then fixed and stained with 0.5% methylene blue in 50% ethanol for 2 h, followed by washing with tap water to remove excess color. Plates were dried and then resuspended in 1% sarkosyl, rotated at room temperature for 3 h. Cell growth was quantitated from the amount of methylene blue absorbed to the cells as measured by a spectrophotometer (Molecular Dynamics) at 595 nm. All experiments were performed in triplicate wells and were repeated at least three times. (see FIG. 1, Table 1B and Table 1C).

[2] = system: HepG2 cells; experiment: Cell cycle analysis (flow cytometry), HepG2; assay type: cell-based, human; details: 24 h treatment
Excerpt: as §1
(§3) KB and HepG2 cells were treated for 24 h with increasing concentrations of DCB-3500 and DCB-3503. At the end of treatment, cells were trypsinized, and the resulting cell suspensions were centrifuged at 1000 rpm for 5 min. The cells were fixed overnight in 70% ethanol at 4° C., centrifuged at 1000 rpm for 5 min, the pellets were washed twice with ice-cold PBS. Cell pellets were then resuspended in 0.5 ml PBS containing 50 μg/ml propidium iodide (Sigma-Aldrich) and 100 μg/ml RNase A (Sigma-Aldrich), incubated at 37° C. for 30 min, and then analyzed by FACScan using Cell Quest software (Becton Dickinson Labware, Franklin Lakes, N.J.). Data were analyzed using Modfit LT version 3.1 software (Verity Software House, Topsham, Me.) for cell cycle profile. (FIG. 1, Table 3)

[3] = system: NF-κB mediated transcription; experiment: Firefly luciferase reporter assay in HepG2 cells; assay type: cell-based, human; details: HepG2 cells transfected with pBIIX-luc, TNFa stimulation
Procedure: HepG2 cells were transiently transfected with firefly luciferase reporter vectors pMyc-TA-luc, pE2F-TAO-luc, pAP1-luc, pCRE-luc, or pBIIX-luc (containing two tandemly repeated NF-kB binding sites), respectively, along with internal control vector phRL-luc which is a promoterless renilla luciferase reporter vector. The day after transfection, cells were pretreated with increasing concentrations of 3500 for 1 h, then cells were stimulated with serum for 24 h, or TPA, forskolin or TNFa for 6 h Firefly and renilla uciferase activities were measured using Promega's dual-luciferase assay kit Data presented is firefly luciferase activity.
HepG2 cells were plated at a density of 2×10^4 per well (48-well plate) and transfected with 0.2 μg of firefly luciferase reporter vector pMyc-TA-luc, pE2F-TA-luc, pAP1-luc, pCRE-luc, or pBIIX-luc (containing two tandemly repeated NF-κB binding sites) respectively, along with internal control vector promoter-less renilla luciferase reporter vector phRL (Promega), using FuGENE 6™ transfection reagent according to the manufacturer's instructions. Cell extracts were prepared and luciferase activity was measured using a Dual-luciferase (firefly and renilla luciferase) assay kit according to the manufacturer's instructions.

[4] = system: KB cells; experiment: Cell cycle analysis (flow cytometry), KB; assay type: cell-based, human; details: 24 h treatment
Excerpt: as §1, §3

[5] = system: human cell-line tumor panel; experiment: NCI human cell-line tumor panel (DTP screen); assay type: cell-based; details: for antitumor activity in NCI in vitro screen: sixty-panel in vitro screen against human-derived tumors; for LC50 for several melanoma and lung cancer cell lines versus the other cell lines: DTP panel; for ranking by average concentration required for total growth inhibition (TGI): screen of 33,744 compounds, fifty-four cell lines
Excerpt: The ranking system was based on the average concentration required to yield a total growth inhibition (TGI) in the numbers of cell lines of the screen (54 for tylo F and tylo G). […] In fact, for many cell lines, the data were off scale; designated as <10^−10 M.

[6] = system: KB (head and neck cancer); experiment: In vitro cell culture growth inhibition, KB; assay type: cell-based, human
Procedure: (§4) Compound II-3 (NSC-716802) was tested in in vitro cell culture studies.
as §2

[7] = system: HepG2 (hepatocarcinoma); experiment: In vitro cell culture growth inhibition, HepG2; assay type: cell-based, human
Procedure: as §4, §2

[8] = Toxicity studies in C57BL/6 mice; assay type: in vivo
Excerpt: FIG. 21 illustrates toxicity studies of DCB-3503 in C57BL/6 mice.

[9] = system: SK-MEL-2; experiment: In vitro cell culture growth inhibition, SK-MEL-2; assay type: cell-based, human
Procedure: as §4, §2

[10] = system: HepG2 tumor; experiment: HepG2 tumor growth inhibition in nude mice; assay type: in vivo; details: 10 mg/kg ip once daily for 5 days; for tumor growth inhibition: HepG2 tumor-bearing nude mice
Excerpt: FIG. 22 illustrates toxicity and tumor growth inhibition studies using DCB-3503.
Four-week-old male NCR-nude mice were obtained from Taconic, and acclimated to laboratory conditions 1 week before tumor implantation. Human HepG2 tumor xenografts were established by injecting subcutaneously 2×10^6 HepG2 cells. […] Tumor weight was estimated by using the equation: Length of tumor×(wide of tumor/2)^2. (FIG. 1(a))

[11] = system: KB and HepG2 cells; experiment: Clonogenic assay; assay type: cell-based, human; details: 24 h exposure, colonies counted after 8 generations
Procedure: FIG. 19 illustrates the effect of DCB-3503 (ZH-152) in clonogenic assays. As depicted, cells were seeded at 5×10^4 per well, then DCB-3503 was added at concentrations ⅓, 1× and 3× the IG50. After a 24 h treatment, the cells were recounted and seeded into a fresh 6 well plate at 200 cells per well. After 8 generations of time the colonies were stained with methylene blue and counted. The cloning efficiency for HepG2 was 10% and for KB was 94%. Both cell lines were exposed to DCB-3503 with the concentration indicated for 24 h. The loss of clonegenic efficiency of cells post drug treatment is shown. […] This supports the previous observation using a different procedure.
They were then grown in the absence of the drug. After eight generations, the colonies were stained and counted.
Cells (5×10^4/well) were plated in 6-well plates. After 24 h, cells were treated with drugs for an additional 24 h. Cells were then trypsinized, counted, and cell viability was determined by trypan blue staining, 200 trypan blue negative cells were plated in triplicate in 6-well plates and grown for eight to ten generation times, then fixed and stained with 0.5% methylene blue in 50% ethanol for 1 h, after plates were washed and dried, the colonies were counted. (FIG. 1, Table 1C).

Question: Which results are given for COc1cc2c3c(c4cc(OC)c(OC)cc4c2cc1OC)CN1CCCC1C3 (stereo in doubt) [DCB-3500, (+)-(S)-tylophorine]?
Answer: cross-resistance with conventional anticancer drugs [1]: no cross-resistance; effect on cell cycle progression (S phase) [2]: not in HepG2 cells; activity against NF-κB mediated transcription [3]: potent activity; effect on cell cycle progression (S phase) [4]: induce S phase accumulation

Question: What does the source list for COc1cc2c3c(c4cc(OC)c(OC)cc4c2cc1OC)[C@@H](O)[C@@H]1CCCN1C3 [DCB-3501]?
Answer: cross-resistance with conventional anticancer drugs [1]: no cross-resistance; antitumor activity in NCI in vitro screen [5]: extraordinary antitumor activity

Question: Which “cross-resistance with conventional anticancer drugs” value (“cross-resistance” for short) [1] does the source give for COc1cc2c(cc1OC)-c1cc(OC)c(OC)cc1[C@H]1CN3CCCC3C=C21 (stereo partly drawn) [II-2, (S)-2,3,6,7-Tetramethoxy-8b,9,10,11,12,12a-hexahydro-9a-aza-cyclopenta[b]-triphenylene] here?
Answer: no cross-resistance

Question: And the “antitumor activity in NCI in vitro screen” value (“antitumor activity in NCI” for short) [5]?
Answer: active

Question: And the “antitumor activity in NCI” value ([5]; listed as NSC-717335)?
Answer: potent antitumor activity

Question: What about the “potency relative to compound II-3 (times more)” value ([6]; KB cell growth in culture) of the same compound?
Answer: 3 to 5

Question: What about the “activity against NF-κB mediated transcription” value [3] of the same compound?
Answer: potent activity

Question: What about the “potency relative to compound II-3 (times more)” value ([7]; HepG2 cell growth in culture) of the same compound?
Answer: 3 to 5

Question: For COc1cc2c3c(c4cc(OC)c(OC)cc4c2cc1OC)[C@H](O)[C@@H]1CCCN1C3 [II-3, (12S,13S)-2,3,6,7-Tetramethoxy-9,10,11,12,12a,13-hexahydro-9a-aza-cyclopenta[b]triphenylen-13-ol], which “cross-resistance” value [1] is on record?
Answer: sensitive

Question: What about the “cross-resistance” value ([1]; listed as 3503) of the same compound?
Answer: no cross-resistance

Question: What about the “cross-resistance” value ([1]; listed as ZH-152) of the same compound?
Answer: still sensitive

Question: And the acute toxicity [8]?
Answer: manageable

Question: What about the “toxicity (dose causing weight loss)” value [8] of the same compound?
Answer: 10 mg/kg

Question: What about the GI50 [9] of the same compound?
Answer: 160 nM

Question: What about the “antitumor activity in NCI” value [5] of the same compound?
Answer: active

Question: What about the “antitumor activity in NCI” value ([5]; listed as 3503) of the same compound?
Answer: extraordinary antitumor activity

Question: And the “antitumor activity in NCI” value ([5]; listed as NSC-716802)?
Answer: potent antitumor activity

Question: What about the “effect on cell cycle progression (S phase)” value (shortened to “effect”) [2] of the same compound?
Answer: inhibition at targets that are responsible for S-phase progression

Question: What about the “effect” value ([2]; listed as 3503) of the same compound?
Answer: not in HepG2 cells

Question: What about the “effect” value ([2]; listed as DCB-3503) of the same compound?
Answer: slows down the cell progress in S-phase

Question: And the weight loss ([10]; HepG2 tumor-bearing mice)?
Answer: without significant weight loss

Question: What about the tumor growth inhibition ([10]; 10 mg/kg) of the same compound?
Answer: profound antitumor effect

Question: And the tumor growth inhibition ([10]; listed as DCB-3503, 10 mg/kg)?
Answer: potent inhibitory activity

Question: What about the GI50 ([6]; KB) of the same compound?
Answer: 200 nM

Question: And the “activity against NF-κB mediated transcription” value [3]?
Answer: potent activity

Question: And the “effect” value [4]?
Answer: inhibition at targets that are responsible for S-phase progression

Question: And the “effect” value ([4]; listed as 3503)?
Answer: induce S phase accumulation

Question: And the “effect” value ([4]; listed as DCB-3503)?
Answer: slows down the cell progress in S-phase

Question: And the GI50 ([7]; HepG2)?
Answer: 60 nM

Question: And the “loss of clonogenic efficiency, HepG2 versus KB” value [11]?
Answer: more sensitive

Question: What about the “loss of clonogenic efficiency, HepG2 versus KB” value ([11]; listed as DCB-3503) of the same compound?
Answer: HepG2 is much more sensitive than KB cells

Question: For COc1ccc(C2=C[C@]3(O)CCCN3C[C@@H]2c2ccc(OC)c(OC)c2)cc1 [tylo F, tyloindicine F], which “LC50 for several melanoma and lung cancer cell lines versus the other cell lines” value [5] is on record?
Answer: two orders of magnitude less

Question: What about the “ranking by average concentration required for total growth inhibition (TGI)” value [5] of the same compound?
Answer: most potent anticancer agents examined

Question: Which results are given for COc1cc2c(cc1OC)-c1cc(OC)c(OC)cc1[C@H]1CN3CCC[C@@]3(O)C=C21 [tylo G, tyloindicine G]?
Answer: LC50 for several melanoma and lung cancer cell lines versus the other cell lines [5]: two orders of magnitude less; ranking by average concentration required for total growth inhibition (TGI) [5]: most potent anticancer agents examined

Question: With COc1cc2c(cc1OC)[C@H]1CN3CCC[C@H]3C=C1c1ccc(OC)c(O)c1-2 [tylo H, tyloindicine H] as the compound, how does the “antitumor activity in NCI” value [5] read?
Answer: active

Question: For COc1ccc(C2=CN3CCC[C@H]3C=C2c2cc(O)c(OC)c(OC)c2)cc1OC [tylo I, tyloindicine I], which “antitumor activity in NCI” value [5] is on record?
Answer: active
